# Like-named read-outs stand apart in the source and are kept apart here.
# Tests used:
# Test in all cases: SelectScreen Kinase Profiling, single point inhibition and IC50 for off-target kinases
# Format in all cases: biochemical
# off-target kinases [1] = target: off-target kinases (Homo sapiens, UniProt P00533, L858R/T790M); details: EGFR (ErbB1) T790M L858R, mutant y, ZLYTE, ATP Km app
# off-target kinases [2] = target: off-target kinases (Homo sapiens, UniProt P04049, Y340D/Y341D)
# off-target kinases [3] = target: off-target kinases (Homo sapiens, UniProt P15056, V600E); details: BRAF V599E
# off-target kinases [4] = target: off-target kinases (Homo sapiens, UniProt Q13177); details: PAK2 (PAK65), ZLYTE, ATP Km app
# off-target kinases [5] = target: off-target kinases (Homo sapiens, UniProt Q13627); details: DYRK1A, ZLYTE, ATP Km app
# off-target kinases [6] = target: off-target kinases (Homo sapiens, UniProt Q15746); details: MYLK (MLCK), LanthaScreen Binding
# off-target kinases [7] = target: off-target kinases (Homo sapiens, UniProt Q16513); details: PKN2 (PRK2), LanthaScreen Binding
# off-target kinases [8] = target: off-target kinases (Homo sapiens, UniProt Q5VT25); details: CDC42 BPA (MRCKA), ZLYTE, ATP Km app
# off-target kinases [9] = target: T1, off-target kinases (Homo sapiens, UniProt Q6PHR2); details: ULK3, LanthaScreen Binding
# T1 sequence (Q6PHR2 1-472): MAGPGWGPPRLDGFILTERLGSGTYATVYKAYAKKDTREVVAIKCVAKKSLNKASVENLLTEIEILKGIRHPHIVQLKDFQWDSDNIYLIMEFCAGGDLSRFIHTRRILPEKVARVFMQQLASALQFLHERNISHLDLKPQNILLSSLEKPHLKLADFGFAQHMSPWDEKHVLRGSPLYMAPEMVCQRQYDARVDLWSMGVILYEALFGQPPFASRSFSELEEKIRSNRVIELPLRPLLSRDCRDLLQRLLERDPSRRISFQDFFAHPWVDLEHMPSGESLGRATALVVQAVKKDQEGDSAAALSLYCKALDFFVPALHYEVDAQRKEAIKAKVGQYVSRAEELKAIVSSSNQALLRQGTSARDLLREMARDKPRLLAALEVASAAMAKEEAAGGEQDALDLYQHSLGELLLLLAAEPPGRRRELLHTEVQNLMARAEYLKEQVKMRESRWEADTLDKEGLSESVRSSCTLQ
# off-target kinases [10] = target: off-target kinases (Homo sapiens, UniProt Q86Z02); details: HIPK1 (Myak), ZLYTE, ATP Km app
# off-target kinases [11] = target: off-target kinases (Homo sapiens, UniProt Q9Y463); details: DYRK1B, ZLYTE, ATP Km app
# Sequence of off-target kinases (Homo sapiens, UniProt Q9Y463) (Q9Y463 whole entry): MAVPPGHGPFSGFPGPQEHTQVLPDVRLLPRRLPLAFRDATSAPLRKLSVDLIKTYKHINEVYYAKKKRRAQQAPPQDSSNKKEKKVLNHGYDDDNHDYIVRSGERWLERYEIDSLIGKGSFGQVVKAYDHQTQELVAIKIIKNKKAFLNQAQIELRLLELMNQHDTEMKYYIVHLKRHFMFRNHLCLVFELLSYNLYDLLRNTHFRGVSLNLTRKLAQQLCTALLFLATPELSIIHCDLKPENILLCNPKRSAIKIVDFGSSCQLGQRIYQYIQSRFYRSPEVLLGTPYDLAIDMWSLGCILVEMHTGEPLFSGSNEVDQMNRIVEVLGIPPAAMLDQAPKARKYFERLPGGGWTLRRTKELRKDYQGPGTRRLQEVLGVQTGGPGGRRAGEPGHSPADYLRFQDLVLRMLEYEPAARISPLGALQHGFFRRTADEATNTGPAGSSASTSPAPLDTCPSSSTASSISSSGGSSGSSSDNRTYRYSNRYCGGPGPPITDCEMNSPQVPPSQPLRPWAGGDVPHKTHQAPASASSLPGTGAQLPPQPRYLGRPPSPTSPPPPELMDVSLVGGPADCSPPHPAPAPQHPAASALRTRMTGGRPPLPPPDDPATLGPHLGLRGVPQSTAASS
# Sequence of off-target kinases (Homo sapiens, UniProt Q5VT25) (Q5VT25 whole entry): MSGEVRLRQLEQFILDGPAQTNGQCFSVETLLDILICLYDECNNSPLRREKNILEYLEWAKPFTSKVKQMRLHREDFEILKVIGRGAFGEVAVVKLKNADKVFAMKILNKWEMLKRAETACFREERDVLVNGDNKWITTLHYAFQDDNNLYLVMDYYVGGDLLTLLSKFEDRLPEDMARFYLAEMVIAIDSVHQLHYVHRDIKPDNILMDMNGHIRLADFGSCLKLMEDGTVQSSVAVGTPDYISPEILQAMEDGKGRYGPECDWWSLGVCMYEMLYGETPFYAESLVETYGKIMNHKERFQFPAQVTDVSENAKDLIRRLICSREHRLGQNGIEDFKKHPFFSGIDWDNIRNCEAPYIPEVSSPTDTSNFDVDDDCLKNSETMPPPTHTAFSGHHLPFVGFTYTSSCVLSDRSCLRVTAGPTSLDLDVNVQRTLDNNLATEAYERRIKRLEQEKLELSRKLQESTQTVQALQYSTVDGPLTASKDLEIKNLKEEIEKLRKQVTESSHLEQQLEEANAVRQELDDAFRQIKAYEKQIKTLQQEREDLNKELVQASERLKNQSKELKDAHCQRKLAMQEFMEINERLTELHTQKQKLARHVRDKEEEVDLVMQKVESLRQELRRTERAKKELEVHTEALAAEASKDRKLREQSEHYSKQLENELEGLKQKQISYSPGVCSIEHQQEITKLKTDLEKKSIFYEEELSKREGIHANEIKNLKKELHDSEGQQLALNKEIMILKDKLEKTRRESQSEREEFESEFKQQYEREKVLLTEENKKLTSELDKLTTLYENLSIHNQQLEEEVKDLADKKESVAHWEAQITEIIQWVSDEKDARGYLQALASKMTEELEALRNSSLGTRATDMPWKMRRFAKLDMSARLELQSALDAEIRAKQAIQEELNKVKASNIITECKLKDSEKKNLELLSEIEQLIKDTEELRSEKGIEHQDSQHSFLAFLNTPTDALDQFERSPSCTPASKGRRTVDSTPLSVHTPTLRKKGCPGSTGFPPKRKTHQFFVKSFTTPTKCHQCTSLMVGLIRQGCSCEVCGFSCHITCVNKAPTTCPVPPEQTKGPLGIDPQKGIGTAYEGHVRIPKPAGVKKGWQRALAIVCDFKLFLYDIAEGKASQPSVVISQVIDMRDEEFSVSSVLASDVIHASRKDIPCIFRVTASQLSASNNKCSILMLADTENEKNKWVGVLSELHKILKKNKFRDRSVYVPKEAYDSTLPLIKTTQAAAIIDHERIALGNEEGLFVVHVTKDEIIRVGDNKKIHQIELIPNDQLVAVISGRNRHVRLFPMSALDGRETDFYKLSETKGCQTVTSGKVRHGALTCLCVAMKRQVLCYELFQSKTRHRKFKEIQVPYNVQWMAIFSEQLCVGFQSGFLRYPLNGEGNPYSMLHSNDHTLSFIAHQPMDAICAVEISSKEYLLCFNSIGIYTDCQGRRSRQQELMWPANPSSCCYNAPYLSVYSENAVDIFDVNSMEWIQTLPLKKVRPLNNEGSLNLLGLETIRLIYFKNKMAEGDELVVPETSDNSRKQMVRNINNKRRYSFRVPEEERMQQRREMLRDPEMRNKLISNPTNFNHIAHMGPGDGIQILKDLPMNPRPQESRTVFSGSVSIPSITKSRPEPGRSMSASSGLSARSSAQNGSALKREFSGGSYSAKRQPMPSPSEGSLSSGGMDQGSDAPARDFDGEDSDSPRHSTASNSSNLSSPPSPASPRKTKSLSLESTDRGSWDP
# Sequence of off-target kinases (Homo sapiens, UniProt P15056, V600E) (P15056 whole entry V600E): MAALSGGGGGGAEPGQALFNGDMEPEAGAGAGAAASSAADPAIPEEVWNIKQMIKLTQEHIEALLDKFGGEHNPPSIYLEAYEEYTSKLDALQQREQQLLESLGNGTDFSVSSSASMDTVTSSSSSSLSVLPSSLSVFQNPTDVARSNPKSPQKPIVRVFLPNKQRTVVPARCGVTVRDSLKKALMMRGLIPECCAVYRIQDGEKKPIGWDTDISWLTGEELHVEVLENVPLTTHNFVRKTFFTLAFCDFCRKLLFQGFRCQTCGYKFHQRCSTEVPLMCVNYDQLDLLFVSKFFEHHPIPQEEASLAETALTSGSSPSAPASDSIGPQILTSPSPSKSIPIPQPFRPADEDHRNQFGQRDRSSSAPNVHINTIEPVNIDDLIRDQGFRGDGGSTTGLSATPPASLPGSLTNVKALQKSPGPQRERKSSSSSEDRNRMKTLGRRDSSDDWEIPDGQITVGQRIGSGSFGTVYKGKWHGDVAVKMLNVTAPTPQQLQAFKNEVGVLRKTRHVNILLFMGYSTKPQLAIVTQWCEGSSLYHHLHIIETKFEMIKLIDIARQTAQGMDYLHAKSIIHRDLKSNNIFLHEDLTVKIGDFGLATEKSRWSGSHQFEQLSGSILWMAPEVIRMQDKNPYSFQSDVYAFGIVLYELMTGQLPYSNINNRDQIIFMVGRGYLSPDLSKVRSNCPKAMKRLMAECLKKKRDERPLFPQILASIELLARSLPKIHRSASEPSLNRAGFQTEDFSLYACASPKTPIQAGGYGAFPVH
# Sequence of off-target kinases (Homo sapiens, UniProt Q86Z02) (Q86Z02 whole entry): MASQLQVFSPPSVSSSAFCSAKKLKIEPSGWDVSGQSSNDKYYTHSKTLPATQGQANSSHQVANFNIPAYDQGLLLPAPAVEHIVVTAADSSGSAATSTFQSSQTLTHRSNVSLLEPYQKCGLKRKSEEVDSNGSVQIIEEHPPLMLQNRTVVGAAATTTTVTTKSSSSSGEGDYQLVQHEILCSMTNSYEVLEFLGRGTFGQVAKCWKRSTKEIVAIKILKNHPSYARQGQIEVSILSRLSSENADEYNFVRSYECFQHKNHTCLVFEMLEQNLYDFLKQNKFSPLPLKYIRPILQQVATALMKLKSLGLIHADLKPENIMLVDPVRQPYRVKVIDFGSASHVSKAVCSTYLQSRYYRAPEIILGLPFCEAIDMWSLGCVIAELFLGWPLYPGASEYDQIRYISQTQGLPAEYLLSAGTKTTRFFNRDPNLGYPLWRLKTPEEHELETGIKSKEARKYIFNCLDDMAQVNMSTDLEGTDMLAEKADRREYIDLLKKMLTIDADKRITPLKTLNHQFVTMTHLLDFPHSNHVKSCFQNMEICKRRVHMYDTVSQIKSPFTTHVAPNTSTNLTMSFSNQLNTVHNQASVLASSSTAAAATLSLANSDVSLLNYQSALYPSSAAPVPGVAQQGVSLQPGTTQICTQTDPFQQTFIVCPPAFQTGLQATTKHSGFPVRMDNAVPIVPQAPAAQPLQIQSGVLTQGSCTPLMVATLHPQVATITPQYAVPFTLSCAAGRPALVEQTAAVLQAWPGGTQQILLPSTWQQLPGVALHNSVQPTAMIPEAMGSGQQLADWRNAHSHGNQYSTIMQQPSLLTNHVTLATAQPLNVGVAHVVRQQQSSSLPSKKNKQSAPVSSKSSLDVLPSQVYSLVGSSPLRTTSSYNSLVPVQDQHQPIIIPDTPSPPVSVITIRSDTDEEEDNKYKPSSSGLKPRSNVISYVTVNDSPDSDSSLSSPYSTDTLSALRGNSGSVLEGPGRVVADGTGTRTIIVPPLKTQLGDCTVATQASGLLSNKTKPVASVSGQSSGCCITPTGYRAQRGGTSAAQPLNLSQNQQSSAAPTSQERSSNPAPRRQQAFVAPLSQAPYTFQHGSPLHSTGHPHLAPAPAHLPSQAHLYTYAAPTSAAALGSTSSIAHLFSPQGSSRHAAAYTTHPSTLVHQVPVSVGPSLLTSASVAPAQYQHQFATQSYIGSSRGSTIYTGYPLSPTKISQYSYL
# Sequence of off-target kinases (Homo sapiens, UniProt P04049, Y340D/Y341D) (P04049 whole entry Y340D/Y341D): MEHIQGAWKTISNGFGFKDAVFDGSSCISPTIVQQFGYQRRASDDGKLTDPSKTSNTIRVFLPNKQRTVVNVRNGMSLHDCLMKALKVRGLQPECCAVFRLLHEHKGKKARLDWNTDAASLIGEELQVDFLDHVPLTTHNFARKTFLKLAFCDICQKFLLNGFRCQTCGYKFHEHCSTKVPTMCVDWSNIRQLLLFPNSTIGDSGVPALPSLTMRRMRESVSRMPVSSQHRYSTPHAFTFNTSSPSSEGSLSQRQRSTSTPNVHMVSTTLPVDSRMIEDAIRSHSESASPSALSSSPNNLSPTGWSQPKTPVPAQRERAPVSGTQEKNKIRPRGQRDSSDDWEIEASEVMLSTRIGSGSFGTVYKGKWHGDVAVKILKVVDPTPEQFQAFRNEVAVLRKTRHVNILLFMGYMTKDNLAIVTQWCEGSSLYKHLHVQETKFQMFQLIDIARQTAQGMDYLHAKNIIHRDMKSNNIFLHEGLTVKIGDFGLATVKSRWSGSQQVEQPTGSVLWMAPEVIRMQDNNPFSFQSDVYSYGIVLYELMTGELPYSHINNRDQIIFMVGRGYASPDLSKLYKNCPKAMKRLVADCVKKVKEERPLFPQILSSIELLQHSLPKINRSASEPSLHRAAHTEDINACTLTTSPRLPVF
compound,measurement,setting,value
"N#Cc1cc(-c2ncnc(Nc3ccc(N4CCN(C5COC5)CC4)cc3)n2)ccc1OC1CCOCC1 [Compound 1, 5-(4-((4-(4-(oxetan-3-yl)piperazin-1-yl)phenyl)amino)-1,3,5-triazin-2-yl)-2-((tetrahydro-2H-pyran-4-yl)oxy)benzonitrile]",inhibition,off-target kinases [1]; read-out: % Inhibition 1,34%
same,inhibition,off-target kinases [1]; read-out: % Inhibition 2,29%
same,inhibition,off-target kinases [1]; read-out: % Inhibition Avg,31%
same,inhibition,"off-target kinases [2]; RAF1 (cRAF) Y340D Y341D (mutant), ZLYTE, ATP 100, read-out: % Inhibition 1",5%
same,inhibition,"off-target kinases [2]; RAF1 (cRAF) Y340D Y341D (mutant), ZLYTE, ATP 100, read-out: % Inhibition 2",3%
same,inhibition,"off-target kinases [2]; RAF1 (cRAF) Y340D Y341D (mutant), ZLYTE, ATP 100, read-out: % Inhibition Avg",4%
same,inhibition,"off-target kinases [2]; RAF1 (cRAF) Y340D Y341D, mutant y, LanthaScreen Binding, read-out: % Inhibition 1",15%
same,inhibition,"off-target kinases [2]; RAF1 (cRAF) Y340D Y341D, mutant y, LanthaScreen Binding, read-out: % Inhibition 2",20%
same,inhibition,"off-target kinases [2]; RAF1 (cRAF) Y340D Y341D, mutant y, LanthaScreen Binding, read-out: % Inhibition Avg",18%
same,inhibition,"off-target kinases [3]; ATP 100, ZLYTE, read-out: % Inhibition 1",63%
same,inhibition,"off-target kinases [3]; ATP 100, ZLYTE, read-out: % Inhibition 2",61%
same,inhibition,"off-target kinases [3]; ATP 100, ZLYTE, read-out: % Inhibition Avg",62%
same,inhibition,"off-target kinases [3]; LanthaScreen Binding, read-out: % Inhibition 1",50%
same,inhibition,"off-target kinases [3]; LanthaScreen Binding, read-out: % Inhibition 2",53%
same,inhibition,"off-target kinases [3]; LanthaScreen Binding, read-out: % Inhibition Avg",52%
same,inhibition,off-target kinases [4]; read-out: % Inhibition 1,6%
same,inhibition,off-target kinases [4]; read-out: % Inhibition 2,-1%
same,inhibition,off-target kinases [4]; read-out: % Inhibition Avg,3%
same,inhibition,off-target kinases [5]; read-out: % Inhibition 1,30%
same,inhibition,off-target kinases [5]; read-out: % Inhibition 2,27%
same,inhibition,off-target kinases [5]; read-out: % Inhibition Avg,28%
same,inhibition,off-target kinases [6]; read-out: % Inhibition 1,5%
same,inhibition,off-target kinases [6]; read-out: % Inhibition 2,3%
same,inhibition,off-target kinases [6]; read-out: % Inhibition Avg,4%
same,inhibition,off-target kinases [7]; read-out: % Inhibition 1,51%
same,inhibition,off-target kinases [7]; read-out: % Inhibition 2,52%
same,inhibition,off-target kinases [7]; read-out: % Inhibition Avg,51%
same,inhibition,off-target kinases [8]; read-out: % Inhibition 1,4%
same,inhibition,off-target kinases [8]; read-out: % Inhibition 2,4%
same,inhibition,off-target kinases [8]; read-out: % Inhibition Avg,4%
same,inhibition,off-target kinases [9]; read-out: % Inhibition 1,101%
same,inhibition,off-target kinases [9]; read-out: % Inhibition 2,104%
same,inhibition,off-target kinases [9]; read-out: % Inhibition Avg,102%
same,inhibition,off-target kinases [10]; read-out: % Inhibition 1,11%
same,inhibition,off-target kinases [10]; read-out: % Inhibition 2,13%
same,inhibition,off-target kinases [10]; read-out: % Inhibition Avg,12%
same,inhibition,off-target kinases [11]; read-out: % Inhibition 1,14%
same,inhibition,off-target kinases [11]; read-out: % Inhibition 2,9%
same,inhibition,off-target kinases [11]; read-out: % Inhibition Avg,11%
